Assay results from patent publication US20220056014A1, “PHENYLPYRROLIDINE COMPOUND AND USE THEREOF” (WUHAN HUMANWELL INNOVATIVE DRUG RESEARCH AND DEVELOPMENT …, priority 2018, published 2022).
Like-named read-outs stand apart in the source and are kept apart here.

What was measured:
[1] = system: LPS-stimulated TNF-α release; assay: LPS-stimulated TNF-α release in mice; assay type: in vivo, Balb/c mice; settings: Mus musculus, oral 50 mg/kg (positive control 100 mg/kg), 1 mg/kg LPS i.p.
Method: 18 Balb/c mice (6 to 8 weeks) were randomly assigned to a blank group, a model group, and an administration group, 6 mice in each group. A vehicle (blank group, model group) or 50 mg/kg compound (administration group, where the dose for the positive control group was 100 mg/kg) was orally administrated. 30 min after the oral administration, PBS (blank group) or 1 mg/kg LPS (model group and administration group) was injected intraperitoneally. 90 min or 120 min after the intraperitoneal injection, blood was collected from the hearts of the mice, and still stood at 2-8° C. for 4 hours, and centrifuged at 5000 rpm for 10 min to collect the serum. The serum was stored at −80° C. for testing.
The serum TNF-α level was tested using a mouse TNF-α detection kit (Mouse TNFa ELISA kit: Biolegend, Cat: 430904). The inhibitory activity of the compounds against the TNF-α release was calculated based on the serum TNF-α level.
Inhibitory activity of compound %={1−(TNFα concentration of administration group−TNFα concentration of blank group)/(TNFα concentration of model group−TNFα concentration of blank group)}×100%.

PDE4B = molecular target: T1, PDE4B (Homo sapiens, UniProt Q07343); assay: PDE4B enzyme activity assay (PDE-Glo Phosphodiesterase Assay Kit); assay type: biochemical
T1 construct: purchased Enzo Life Sciences BML-SE522-0020
T1 sequence (Q07343 whole entry): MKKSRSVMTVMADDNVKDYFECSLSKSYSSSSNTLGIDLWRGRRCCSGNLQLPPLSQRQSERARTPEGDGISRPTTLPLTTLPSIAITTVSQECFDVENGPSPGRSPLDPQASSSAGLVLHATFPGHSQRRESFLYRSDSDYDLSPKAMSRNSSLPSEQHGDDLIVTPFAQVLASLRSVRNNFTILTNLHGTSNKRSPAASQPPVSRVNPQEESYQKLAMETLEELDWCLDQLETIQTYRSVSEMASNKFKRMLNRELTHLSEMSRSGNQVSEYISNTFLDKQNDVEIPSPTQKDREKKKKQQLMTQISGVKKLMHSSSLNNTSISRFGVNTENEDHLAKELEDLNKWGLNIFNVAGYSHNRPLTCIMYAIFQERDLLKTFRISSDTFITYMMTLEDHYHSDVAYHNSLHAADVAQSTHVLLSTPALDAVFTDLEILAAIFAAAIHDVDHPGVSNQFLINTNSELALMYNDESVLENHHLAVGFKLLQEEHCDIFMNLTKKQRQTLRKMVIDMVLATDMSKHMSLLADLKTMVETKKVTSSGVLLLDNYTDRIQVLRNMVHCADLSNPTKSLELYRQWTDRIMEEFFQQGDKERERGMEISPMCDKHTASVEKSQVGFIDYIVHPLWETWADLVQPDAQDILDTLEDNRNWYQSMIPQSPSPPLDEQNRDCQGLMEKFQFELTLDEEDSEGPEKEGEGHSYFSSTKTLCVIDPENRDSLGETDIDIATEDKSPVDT
Method in brief: (§1)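 Recombinant human PDE4B (1 ng/μl working solution) or PDE4D (4 ng/μl working solution) preincubated 5 min at RT with compound, then reacted 20 min with cAMP (2 μM in added solution). PDE-Glo termination/detection and Kinase-Glo steps followed; luminescence read and IC50 fitted.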

PDE4D = molecular target: T2, PDE4D (Homo sapiens, UniProt Q08499); assay: PDE4D enzyme activity assay (PDE-Glo Phosphodiesterase Assay Kit); assay type: biochemical
T2 construct: purchased Enzo Life Sciences BML-SE523-0020
T2 sequence (Q08499 whole entry): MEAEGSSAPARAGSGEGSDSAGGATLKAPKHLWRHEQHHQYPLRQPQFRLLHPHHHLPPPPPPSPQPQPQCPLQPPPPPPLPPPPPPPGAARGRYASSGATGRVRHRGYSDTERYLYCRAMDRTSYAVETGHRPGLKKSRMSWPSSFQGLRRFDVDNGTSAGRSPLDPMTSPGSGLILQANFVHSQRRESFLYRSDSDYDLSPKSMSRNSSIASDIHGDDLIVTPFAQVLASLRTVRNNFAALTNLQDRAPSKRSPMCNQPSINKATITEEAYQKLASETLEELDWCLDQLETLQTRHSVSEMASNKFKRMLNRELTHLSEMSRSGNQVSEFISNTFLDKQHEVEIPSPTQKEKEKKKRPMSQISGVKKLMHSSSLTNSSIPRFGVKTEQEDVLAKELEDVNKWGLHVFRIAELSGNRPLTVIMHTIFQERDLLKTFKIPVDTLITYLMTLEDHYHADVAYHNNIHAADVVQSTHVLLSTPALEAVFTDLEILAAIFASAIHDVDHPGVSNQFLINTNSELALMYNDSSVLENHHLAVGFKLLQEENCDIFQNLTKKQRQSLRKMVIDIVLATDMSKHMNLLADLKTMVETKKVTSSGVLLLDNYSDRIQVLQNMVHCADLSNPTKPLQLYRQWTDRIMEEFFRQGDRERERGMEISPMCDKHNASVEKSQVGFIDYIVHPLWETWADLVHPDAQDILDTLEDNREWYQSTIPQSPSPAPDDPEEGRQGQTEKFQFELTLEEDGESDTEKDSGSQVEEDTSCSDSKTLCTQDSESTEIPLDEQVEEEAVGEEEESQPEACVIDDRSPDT
Method in brief: as §1

[2] = system: LPS-induced secretion of TNFα in human PBMCs; assay: LPS-induced secretion of TNFα in human PBMCs; assay type: cell-based; settings: Homo sapiens, PBMC, 24 h, LPS 10 ng/ml
Method in brief: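 PBMCs isolated by Lymphoprep density centrifugation were seeded at 5×10^4/well in RPMI1640 + 10% FBS and given compound, with 30 min pre-incubation, then stimulated with 10 ng/ml LPS (final). After 24 h, supernatant TNF-α was measured by ELISA kit.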

[3] = system: Mouse CIA arthritis model; assay: Mouse CIA arthritis model test; assay type: in vivo, DBA/1 mice; settings: 30 mg/kg oral, twice a day for 21 days
Method: (1) Preparation of Type II Collagen/Complete Freund's Adjuvant
Preparation of acetic acid: 2N acetic acid was diluted to 100 mM, filtered with 0.22 μm filter membrane, and stored at 4° C.
Preparation of bovine type II collagen solution: bovine type II collagen (CII) was dissolved in 100 mM acetic acid solution and stored at 4° C. overnight. A final concentration of collagen was 8 mg/mL.
Preparation of emulsion: the CII solution stored overnight was mixed with an equal volume of complete Freund's adjuvant, and homogenized on ice by a high-speed homogenizer at 30,000 rpm for approximately 60 min, until the solution formed a stable emulsion.
After DBA/1 mice were anesthetized with isoflurane, 50 μl of prepared collagen emulsion (containing 200 micrograms of CII) was injected subcutaneously in the tail (2-3 cm from the base of the tail) for immunization. The day of the primary immunization was recorded as day 0, and the following days were recorded sequentially. On day 21, the same volume of collagen emulsion was injected into the tail in the same way. Mice in the normal group were not immunized.
On day 21, the mice that had been induced to have arthritis were randomly grouped according to their body weights, such that the average body weight of each group was consistent, and they were randomly divided into 6 treatment groups for administration, with 10 mice in each group.
G1 group included normal mice without being treated; G2 group was given a blank vehicle; G3 to G7 groups were administrated with the compound at a dose of 30 mg/kg, twice a day for 21 days. The volume of oral administration was 10 mL/kg.
After the enhanced immunization, the disease incidence of the mice was observed every day. When the mice began to develop symptoms (clinical symptoms of arthritis emerged), the symptoms were graded as 0 to 4 according to the different degrees of pathological changes (redness, joint deformation), where the highest score for each limb was 4, and the highest score for each animal was 16. The mice were graded at least three times a week.
The area under curve (AUC) of clinical scores of each group from day 21 to day 42 was calculated, and the inhibition rate % of the clinical score AUC of the administration group was calculated:
Inhibition rate %=1−(administration group AUC/blank vehicle group AUC)*100%
The experimental data are expressed as Mean±standard error (Mean±SEM), and the clinical scores were analyzed with One-way ANOVA, where p<0.05 was considered to be a significant difference.

IC50 (PDE4B): 1.87 nM
IC50 (PDE4D)/IC50 (PDE4B) (PDE4B; selectivity ratio): 1.37
IC50 (PDE4D): 2.56 nM
Structure (SMILES): CCc1ccc(N2CC(Oc3cc([C@@H]4CN(C(=O)[C@@H](O)CO)C[C@@]4(C)[C@@H](C)O)ccc3OC)C2)nc1 [Compound 031, (S)-1-((3S,4S)-4-(3-((1-(5-ethylpyridin-2-yl)azetidin-3-yl)oxy)-4-methoxyphenyl)-3-((R)-1-hydroxyethyl)-3-methylpyrrolidin-1-yl)-2,3-dihydroxypropan-1-one]
inhibition in vivo at 50 mg/kg ([1]; 1.5 h, blood 90 min after LPS, read-out: Inhibition rate (%) of LPS-stimulated TNF-α release, 90 min): 64.8%
inhibition in vivo at 50 mg/kg ([1]; 2 h, blood 120 min after LPS, read-out: Inhibition rate (%) of LPS-stimulated TNF-α release, 120 min): 78.3%
IC50 [2]: 0.7 nM
inhibition rate based on clinical score AUC ([3]; AUC day 21 to day 42): 85.0%
Clinical score (endpoint) ([3]; day 42, highest score 16): 2.1
